Reference: patent US7528252B2, “Derivatives of triazoly-imidazopyridine useful as ligands of the adenosine A2a receptor and their use as medicaments” (Sigma-Tau Industrie Farmaceutiche Riunite S.p.A., priority 2002, dated 2009)

How the values were obtained:
CD1 male mice = experiment: Effects on spontaneous motor activity in mice; type: in vivo; conditions: for Horizontal activity / Vertical activity: mean ± s.e.
Description: For this study, type CD1 male mice (n=8) were used. The effects of the products under study and of the reference compounds were evaluated using an apparatus consisting of a Plexiglas cage (40 cm×40 cm) surrounded by a series of photocells which monitor the movements of the animals placed inside, connected a computerised system, through which, the signals are collected and later elaborated.
Tests were carried out, after endoperitoneal administration of the products. 15 minutes after treatment, the treated animals, alternating with the controls, were placed inside the cage so as to record their spontaneous movements over a total period of 45 minutes broken down into two observation intervals (15′-45′ and 45′-60′, with respect to the time after treatment).
To examine the possible effects of the compounds studied on motor activity, the following parameters were considered: horizontal activity, vertical activity: total distance.
Except for CGS 21680 (reference compound, described in EP 0 277 917, Ciba-Geigy) which was dissolved in 0.9% NaCl, the products studied were solubilised in DMSO and then diluted in Cremofor EL and 0.9% NaCl (final concentrations: DMSO 15%, Cremofor EL 15%, NaCl 0.9%.

mice [1] = experiment: Capacity to antagonise CGS 21680 induced catalepsy; type: in vivo; conditions: orally 5 mg/Kg and 10 mg/Kg, 30 minutes prior to CGS 21680 (10 μg/5 μl/mouse i.c.v.); scored 30′, 60′, 120′, 180′
Description: (§1) 10 CD1 male mice were used per group. For this test, a steel bar, 10 cm long, was placed at a height of 4.5 cm above the support surface. Onto this, were placed the front legs of the animals. The presence of catalepsy was determined by measuring the time (in seconds) the animal remained in the posture placed. Later, this parameter was placed relatively, on a scale of rising values (0 to 5) through which, the degree of catalepsy determined in both control animals and in these subjected to treatment with the substances under test could be proportionately expressed.
For this study, the product ST 1535 was used. Catalepsy was induced in the animals through the intracerebroventricular administration of CGS 21680 (10 μg/5 μl/mouse), 30 minutes prior to testing for the catalepsy score. The test compound was administered orally at a dose of 5 mg/Kg and 10 mg/Kg , 30 minutes prior to treatment with CGS 21680.
The catalepsy score was derived in the manner described following treatment with OGS 21680 after the following times: 30′, 60′ 120′, 180′.

mice [2] = experiment: Capacity to antagonise Haloperidol-induced catalepsy; type: in vivo; conditions: orally 10 mg/kg and 20 mg/kg; Haloperidol 4 mg/Kg endoperitoneal
Description: as §1
For this study, product ST 1535 was used. Catalepsy was induced in the animals through the endoperitoneal administration of Haloperidol at a dose of 4 mg/Kg, two hours prior measuring catalepsy in the animals, the presence of which was determined according to the method described previously.
After scoring for catalepsy by Haloperidol, the animals were treated orally, with a dose equal to 10 mg/kg and 20 mg/kg of the product ST 1535. Then 60 minutes after treatment, the animals were subjected to further catalepsy scoring, which was carried out at the following times after ST 1535 administration: 120′, 240′, 300′.

CD1 mice = experiment: Associated L-DOPA and A2a antagonists on Haloperidol-induced catalepsy; type: in vivo; conditions: ST 1535 1.25 or 2.5 mg/kg per os; L-DOPA 12.5 mg/kg; benserazide 3.12 mg/kg i.p.; Haloperidol 4 mg/kg i.p.
Description: For this study, product ST 1535 was used.
CD1 mice, divided into different experimental groups (n=10 per group) were used. All animals were subjected to treatment with Haloperidol (4 mg/kg, i.p.) two hours and 30′ prior to the catalepsy test, carried out according to the method described above.
Later, the animals were subjected to different types of treatment according to their original experimental group (see diagram). All catalepsy evaluations were carried out 2 hours and 30 minutes after Haloperidol treatment.
Haloperidol+ST 1535: ST 1535 2.5 mg/kg, per os, 75′ prior to testing;
Haloperidol+benserazide+L-Dopa: Benserazide 3.12 mg/kg i.p., 90′ prior to testing;
L-DOPA:. 12.5 mg/kg, 60′ prior to testing;
Aloperidol+benserazide+L-Dopa+ST 1535: Benserazide 3.12 mg/kg i.p., 90′ prior to testing;
L-DOPA 12.5 mg/kg, 60′ prior to testing;

mice [3] = experiment: Forced swim test in mice; type: in vivo; conditions: 60 minutes before the test; 4 minutes of testing period
Description: Mice were dropped individually into glass cylinders (height: 25 cm, internal diameter 10 cm) containing 10 cm water, maintained at 23° C. The immobility time (sec) was measured during 4 minutes of test. A mouse was judged to be immobile when it remained floating in the water, making only the necessary movements to keep its head above water. Test compound ST 1535 was administered orally to mice, 60 minutes before the test.

human A2a receptor [4] = biological target: T1, human A2a receptor (Homo sapiens, UniProt P29274); conditions: ratio of receptor affinity (selectivity)
T1 sequence (P29274 whole entry): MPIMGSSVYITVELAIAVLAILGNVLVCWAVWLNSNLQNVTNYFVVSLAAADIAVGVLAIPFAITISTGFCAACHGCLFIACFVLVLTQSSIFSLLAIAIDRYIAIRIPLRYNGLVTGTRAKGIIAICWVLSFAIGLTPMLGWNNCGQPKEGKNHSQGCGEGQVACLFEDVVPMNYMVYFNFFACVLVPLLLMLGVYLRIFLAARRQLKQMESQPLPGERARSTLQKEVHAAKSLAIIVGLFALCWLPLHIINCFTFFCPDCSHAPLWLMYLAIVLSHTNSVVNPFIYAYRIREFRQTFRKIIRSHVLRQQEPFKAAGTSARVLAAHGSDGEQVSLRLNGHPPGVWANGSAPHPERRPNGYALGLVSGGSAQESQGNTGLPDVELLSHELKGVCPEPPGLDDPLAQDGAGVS

human A2a receptor [5] = biological target: T1, human A2a receptor; experiment: biochemical
[6] = 2.5 mg/kg endoperitoneal, interval 15′-45′ from treatment
[7] = 2.5 mg/kg endoperitoneal, interval 45′-60′ from treatment
[8] = 5 mg/kg endoperitoneal, interval 15′-45′ from treatment
[9] = 5 mg/kg endoperitoneal, interval 45′-60′ from treatment
[10] = 10 mg/kg endoperitoneal, interval 15′-45′ from treatment
[11] = 10 mg/kg endoperitoneal, interval 45′-60′ from treatment
[12] = 20 mg/kg endoperitoneal, interval 15′-45′ from treatment
[13] = 20 mg/kg endoperitoneal, interval 45′-60′ from treatment

For `CCCCc1nc(N)c2nc(-n3nccn3)n(C)c2n1` [ST 1535, 2-butyl-9-methyl-8-(2H-1,2,3-triazol-2-yl)-9H-purine-6-ylamine], the Horizontal activity (CD1 male mice; [6]) was 5386 ± 505, the Vertical activity (CD1 male mice; [6]) was 282 ± 79 and the Horizontal activity (CD1 male mice; [7]) was 1693 ± 266. For the same molecule, the Vertical activity (CD1 male mice; [7]) was 68 ± 21, the Horizontal activity (CD1 male mice; [8]) was 7549 ± 508 and the Vertical activity (CD1 male mice; [8]) was 249 ± 41. The Horizontal activity (CD1 male mice; [9]) was 2353 ± 199, the Vertical activity (CD1 male mice; [9]) was 76 ± 16 and the Horizontal activity (CD1 male mice; [10]) was 7434 ± 526. For the same molecule, the Vertical activity (CD1 male mice; [10]) was 219 ± 64, the Horizontal activity (CD1 male mice; [11]) was 2784 ± 345 and the Vertical activity (CD1 male mice; [11]) was 71 ± 32. It also gave a Horizontal activity (CD1 male mice; [12]) of 10524 ± 670, a Vertical activity (CD1 male mice; [12]) of 486 ± 84 and a Horizontal activity (CD1 male mice; [13]) of 3321 ± 363. For the same molecule, the Vertical activity (CD1 male mice; [13]) was 148 ± 36, the “dose from which a significant increase of the spontaneous motor activity in mice is observed” value (CD1 male mice; endoperitoneal) was at least 5 mg/kg and the “effect on CGS 21680-induced catalepsy (FIG. 2)” value (mice [1]) was “significantly antagonises the appearance of catalepsy at all the observed times”. For the same molecule, the “effect on Haloperidol induced catalepsy (FIG. 3)” value (mice [2]) was “reduces the appearance of catalepsy in mice”, the “combination with sub threshold dose of L-DOPA plus benserazide on Haloperidol-induced catalepsy (FIG. 4)” value (CD1 mice) was “potentiates the anticataleptic activity of treatment with ineffective doses of L-DOPA and benserazide” and the “time of immobility, forced swim test (FIG. 5)” value (mice [3]) was “reduces, in a dose-dependant manner, the time of immobility of the animal”. It also gave a KiA1/KiA2a (human A2a receptor [4]) of 47 and a Ki (human A2a receptor [5]) of 2.29 ± 0.58 nM.
